Experimental data published in PubChem BioAssay AID1996.
In brackets after ≈: the same amount, converted by molar mass.

Conditions: buffer; pH 7.4; 200.0 µM

Going from `O=C(/C=C/c1ccccc1)Oc1ccccc1C(=S)N1CCOCC1` to `[O-][n+]1c(/C=C/c2ccccc2)ccc2ccccc21`, the solubility kinetic rises from 18.9 µg/mL (≈ 53.5 µM) to greater than 37.1 µg/mL.

`NCC1(CC(=O)O)CCCCC1` and `CC(CN1CCCCC1)OC(=O)c1ccco1.Cl` (centres undefined) cannot be ordered by solubility kinetic: greater than 25.7 µg/mL for the first, greater than 41.1 µg/mL for the second.

First: COc1ccc(CCNC(=O)CNC(=O)c2ccco2)cc1
Second: CC(=O)Nc1ccc(-c2csc(NC(=O)CCNC(=O)c3ccco3)n2)cc1
The solubility kinetic of the first is higher: greater than 45.3 µg/mL for the first, 11.7 µg/mL (≈ 29.4 µM) for the second.

Going from `O=C1N=C(N2CCN(c3ccccc3)CC2)S/C1=C/c1ccco1` to `O=C(CC1SC(N2CCOCC2)=NC1=O)Nc1ccccc1F` (centres undefined), the solubility kinetic rises from 17.4 µg/mL (≈ 51.3 µM) to greater than 50.6 µg/mL.

Compared with `COc1ccc(C(=O)Nc2nc(-c3ccccc3)c(C(C)=O)s2)c(OC)c1`, `COc1ccc(-c2ncncc2-c2ccccc2)c(O)c1` is 17-fold higher in solubility kinetic: 0.7 µg/mL (≈ 1.83 µM) for the first, 11.6 µg/mL (≈ 41.7 µM) for the second.

Going from `N#Cc1ccc(Cl)cc1NC(=O)CSc1cccc[n+]1[O-]` to `O=C(O)c1ccc(NCCc2ccc(Cl)cc2)c([N+](=O)[O-])c1`, the solubility kinetic falls from greater than 48 µg/mL to 44.6 µg/mL (≈ 139 µM).

First: CCCC(=O)Nc1ccc(NC(=O)c2cccc(OC)c2)cn1
Second: CC(=O)c1cccc(NC(=O)CCn2c(=O)oc3ccccc32)c1
The solubility kinetic of the first is 2.3-fold lower: 8.7 µg/mL (≈ 27.8 µM) for the first, 19.7 µg/mL (≈ 60.7 µM) for the second.

First: CCOC(=O)c1c(C=O)c2ccccc2n1Cc1ccccc1F
Second: Cc1ccc(C(=O)COC(=O)CCNS(=O)(=O)c2ccccc2F)cc1
The solubility kinetic of the first is lower: less than 0.7 µg/mL for the first, greater than 56.9 µg/mL for the second.

`CC(Sc1ccc2ccccc2c1)C(=O)NC(N)=O` (centres undefined) and `Cc1ccc(COC(=O)c2ccc3ccccc3n2)cc1` are within 1.5-fold of each other in solubility kinetic: 8.6 µg/mL (≈ 31.3 µM) for the first, 7.6 µg/mL (≈ 27.4 µM) for the second.

Going from `CNP(=O)(Oc1ccccc1)OC12CC3CC(CC(C3)C1)C2` (centres undefined) to `COc1ccccc1NC(=O)c1csc2c1CCC(C)C2` (centres undefined), the solubility kinetic falls from greater than 48.2 µg/mL to 1.2 µg/mL (≈ 3.98 µM).

First: O=C(O)c1ccccc1C(=O)NCCc1ccc(Cl)cc1
Second: Clc1ccc(Cc2ccccn2)cc1
The solubility kinetic of the first is 6.9-fold higher: 43.3 µg/mL (≈ 143 µM) for the first, 6.3 µg/mL (≈ 30.9 µM) for the second.

Going from `CCOC(=O)c1c(C)[nH]c(C(=O)OCC(=O)NCc2ccccc2)c1C` to `CCOC(=O)C1=C(COC(=O)CCc2ccc(CC)cc2)NC(=O)NC1C` (centres undefined), the solubility kinetic rises from 4.5 µg/mL (≈ 12.6 µM) to 40 µg/mL (≈ 107 µM) (8.9-fold).

Going from `COc1ccccc1C1CCN(Cc2ccccc2Cl)CC1` to `COc1ccc(C(C)=O)cc1COC(=O)C1CCN(C(=O)c2ccc(Cl)cc2)CC1`, the solubility kinetic rises from 3.6 µg/mL (≈ 11.4 µM) to 33.5 µg/mL (≈ 77.9 µM) (9.3-fold).

First: O=S(=O)(c1ccc(F)cc1)N1CCCC1c1cccnc1 (centres undefined)
Second: N#Cc1ccc(OCC(=O)Nc2ccc(S(=O)(=O)N3CCOCC3)cc2)cc1
The solubility kinetic of the first is higher: greater than 46 µg/mL for the first, 5.5 µg/mL (≈ 13.7 µM) for the second.

`CC1(C)CC(=O)C=C(Nc2cccc(F)c2)C1` and `CC1(C)CC(=O)C=C(NCCc2ccccc2)C1` cannot be ordered by solubility kinetic: greater than 35 µg/mL for the first, 35.1 µg/mL (≈ 144 µM) for the second.

Going from `CCn1cc(CN(C)S(=O)(=O)c2cccc([N+](=O)[O-])c2)cn1` to `O=C(Nc1cccc2ncccc12)c1cc([N+](=O)[O-])ccc1Cl`, the solubility kinetic falls from greater than 48.7 µg/mL to 3.2 µg/mL (≈ 9.76 µM).

Compared with `COc1ccc(-c2nonc2NC(=O)c2ccco2)cc1OC`, `COc1cc(NC(=O)Cn2c([N+](=O)[O-])cnc2C)c(OC)cc1Cl` is lower in solubility kinetic: greater than 47.3 µg/mL for the first, 45.3 µg/mL (≈ 128 µM) for the second.

`CC1(c2ccccc2)NC(=O)N(CC(=O)Nc2ccccc2C(=O)NC2CC2)C1=O` (centres undefined) and `O=C(O)c1ccccc1C(=O)Nc1ccccc1NC(=O)c1ccccc1C(=O)O` cannot be ordered by solubility kinetic: greater than 61 µg/mL for the first, greater than 60.7 µg/mL for the second.

Compared with `Cn1cc(C=O)c2ccccc21`, `CC1(CCBr)C(=O)N(c2ccccc2)c2ccccc21` (centres undefined) is lower in solubility kinetic: greater than 23.9 µg/mL for the first, 22.9 µg/mL (≈ 69.3 µM) for the second.

`CCc1ccccc1NC(=O)N1C[C@H]2C[C@@H](C1)c1cccc(=O)n1C2` and `O=C(Nc1cccc(C(=O)Nc2ccccc2C(=O)O)c1)c1cccc(Cl)c1` cannot be ordered by solubility kinetic: greater than 50.6 µg/mL for the first, greater than 59.2 µg/mL for the second.

Going from `COC(=O)c1ccc(CSC(=N)N)o1` to `COc1cccc(C(=O)OCC(=O)NCC2CCCO2)c1` (centres undefined), the solubility kinetic rises from 27.6 µg/mL (≈ 129 µM) to greater than 44 µg/mL.

Going from `CN(CCc1ccccn1)C(=O)Nc1cccc(Cl)c1` to `O=C(Nc1ccc(Cl)c(Cl)c1)c1ccc2c(c1)OCO2`, the solubility kinetic falls from 38.6 µg/mL (≈ 133 µM) to less than 0.7 µg/mL.

Compared with `O=C(NC1CCCCC1)c1ccc2c(c1)OCCO2`, `COc1ccc(S(=O)(=O)N2CCN(C(=O)c3cc4c(s3)CCC4)CC2)cc1` is 4.5-fold lower in solubility kinetic: 34.8 µg/mL (≈ 133 µM) for the first, 7.7 µg/mL (≈ 18.9 µM) for the second.

Going from `CCC(CC)NC(=O)Nc1ccccc1C(F)(F)F` to `O=C(CCS(=O)(=O)c1ccccc1)Nc1nncs1`, the solubility kinetic rises from 10.8 µg/mL (≈ 39.4 µM) to greater than 44.6 µg/mL.

Going from `CCCCCC(=O)OC(CN1CCCC1=O)C[NH+]1CCCCCC1.[Cl-]` (centres undefined) to `OCCC1CN(CC2CCCCC2)CCN1C1CCCC1` (centres undefined), the solubility kinetic falls from greater than 56.2 µg/mL to 40.8 µg/mL (≈ 139 µM).

Compared with `COc1ccc(Nc2oc(-c3ccc(OC)cc3)nc2C#N)cc1`, `COc1cc(/C=C(\C#N)c2nc3ccccc3[nH]2)ccc1O` is 7-fold higher in solubility kinetic: 0.7 µg/mL (≈ 2.18 µM) for the first, 4.9 µg/mL (≈ 16.8 µM) for the second.

Going from `Cc1nn(C)c(C)c1NS(=O)(=O)c1ccc(N2CCCC2=O)cc1` to `CC(=O)c1sc(NC(=O)c2ccc(C(C)(C)C)cc2)nc1C`, the solubility kinetic falls from greater than 52.3 µg/mL to less than 0.3 µg/mL.

Going from `Cc1onc(-c2c(Cl)cccc2Cl)c1C(=O)c1ccc(F)cc1` to `Cc1onc(-c2c(Cl)cccc2Cl)c1C(=O)Nc1nccs1`, the solubility kinetic rises from less than 0.7 µg/mL to 4.7 µg/mL (≈ 13.3 µM).

Going from `Cc1cc(C)nc(NC(N)=S)n1` to `CCOc1cc(C(=O)NC)cc(Br)c1OC`, the solubility kinetic rises from 10.4 µg/mL (≈ 57.1 µM) to greater than 43.2 µg/mL.

Compound `Cc1ccc(SCc2nc3ncccn3c2Br)cc1` has a solubility kinetic greater than 50.1 µg/mL.
